Assay results: patent US10106498B2, “Compositions relating to vitamin D” (Siemens Healthcare Diagnostics Inc., priority 2014, dated 2018)
“And” between values parts separate entries of the source, which are not always exact repeats. Identical values can stand only once.

System: biotinylated monoclonal anti-25OH vitamin D antibody
Test: LOCI 25(OH)D immunoassay: 3-epimer cross-reactivity, no anti-3-epimer antibody added
Assay type: binding, sheep
Conditions: for Avg. Cross-reactivity, No anti-3-epimer VD Ab Added: average of ten patient sera spiked with 100 ng/mL 3-epimer vitamin D3
Description: The 25OH Vitamin D (25(OH)D) immunoassay format employed was a homogeneous competitive chemiluminescent immunoassay based on LOCI® assay technology. The assay was performed on the Siemens Dimension® EXL automated integrated clinical chemistry system (Siemens Healthcare Diagnostics Inc., Deerfield, Ill.). The assay measured the total concentration of 25(OH)D2 and/or 25(OH)D3 in serum and plasma samples. The LOCI® assay reagents included a releasing reagent, two synthetic bead reagents and a biotinylated monoclonal anti-25OH vitamin D antibody reagent. The first bead reagent (designated “Sensibeads”) was coated with streptavidin and contained a photosensitive dye. The second bead reagent (designated “Chemibeads”) was coated with a 25(OH)D3 analog and contained chemiluminescent dye. Sample was incubated with the releasing reagent to release 25(OH)D molecules including 3-epimeric compounds from vitamin D binding proteins. The reaction mixture was then incubated with biotinylated antibody to form a 25(OH)D-biotinylated antibody complex. […] Chemibeads were added to bind excess free biotinylated antibody. Sensibeads were then added to bind to the biotin portion of the biotinylated antibody. Aggregates of Chemibead-analog/antibody-biotin/streptavidin-Sensibeads were formed as a result. Illumination of the reaction mixture with light at 680 nm generates singlet oxygen from Sensibeads, which diffused into the Chemibeads and triggered a chemiluminescent reaction. The resulting chemiluminescent signal was measured at 612 nm and is inversely proportional to the concentration of total 25(OH)D in the sample.
The effect of adding anti-3-epimer-VD antibody 8F10.1 (anti-3-epimer VD Ab) on the 3-epimer cross-reactivity for the assay is shown in Table 1. […] The 3-epimer cross-reactivity was calculated by the difference between 25(OH)D2 or 25(OH)D3 values with and without the spiked 3-epimer compound divided by the amount of added 3-epimer compound.

In the case of `C=C1CC[C@@H](O)C/C1=C/C=C1\CCC[C@]2(C)[C@@H]([C@H](C)CCCC(C)(C)O)CC[C@@H]12` [3-epimer D3, 3-epi-25-hydroxyvitamin D3], the “Avg. Cross-reactivity, No anti-3-epimer VD Ab Added” value is reported as 13.7%, the “Avg. Cross-reactivity, No anti-3-epimer VD Ab Added” value (listed as 3-epimer vitamin D3 compound) is reported as 13.7% and the “Cross-Reactivity, No anti-3-epimer VD Ab Added” value (individual patient sera (Sample ID 1-10) spiked with 100 ng/mL 3-epimer vitamin D3) is reported as 17.9% (2×) and 11.9% and 12.6% and 16.1% and 10.2% and 9.1% and 10.5% and 15.3% and 15.5%.
